Source: patent US9073940B2, “Tricyclic pyrazol amine derivatives” (MERCK SERONO SA, priority 2009, dated 2015)

Tested on: 4 PI3K isoforms (Human recombinant GST-PI3K)
Test: PI3K scintillation proximity assay, best IC50 obtained with the four isoforms (alpha, beta, delta, gamma)
Type: biochemical
Conditions: for IC50: best IC50 obtained with the four isoforms of PI3K, read-out: Best potency measured on the 4 PI3K isoforms; for Best potency measured on the 4 PI3K isoforms, % inh @20 μM: inhibition at 20 μM

**Q.** O=C(c1nn(CC2CCCO2)c2c1CS(=O)(=O)c1ccccc1-2)N1CCOCC1 (centres unmarked) [Example 45, 3-(morpholin-4-ylcarbonyl)-1-(tetrahydrofuran-2-ylmethyl)-1,4-dihydrothiochromeno[4,3-c]pyrazole 5,5-dioxide] was tested. Which IC50 did it give?
**A.** Its IC50 is 1560 nM.

**Q.** With O=C(c1nn(Cc2ccccn2)c2c1CS(=O)(=O)c1ccccc1-2)N1CCOCC1 [Example 47, 3-(morpholin-4-ylcarbonyl)-1-(pyridin-2-ylmethyl)-1,4-dihydrothiochromeno[4,3-c]pyrazole 5,5-dioxide] as the compound, how does the IC50 read?
**A.** Its IC50 is 3960 nM.

**Q.** Which IC50 does the source give for CC(C)Cn1nc(C(=O)N2CCOCC2)c2c1-c1ccccc1S(=O)(=O)C2 [Example 50, 1-isobutyl-3-(morpholin-4-ylcarbonyl)-1,4-dihydrothiochromeno[4,3-c]pyrazole 5,5-dioxide] here?
**A.** The IC50 was 960 nM.

**Q.** O=C(c1nn(CC2CCCCC2)c2c1CS(=O)(=O)c1ccccc1-2)N1CCOCC1 [Example 51, 1-(cyclohexylmethyl)-3-(morpholin-4-ylcarbonyl)-1,4-dihydrothiochromeno[4,3-c]pyrazole 5,5-dioxide] was tested. Which IC50 did it give?
**A.** Its IC50 is 509 nM.

**Q.** O=C(c1nn(CC2CCOCC2)c2c1CS(=O)(=O)c1ccccc1-2)N1CCOCC1 [Example 52, 3-(morpholin-4-ylcarbonyl)-1-(tetrahydro-2H-pyran-4-ylmethyl)-1,4-dihydrothiochromeno[4,3-c]pyrazole 5,5-dioxide] was tested. Which IC50 did it give?
**A.** Its IC50 is 789 nM.

**Q.** How did the IC50 turn out when COCCn1nc(C(=O)N2CCOCC2)c2c1-c1ccccc1S(=O)(=O)C2 [Example 53, 1-(2-methoxyethyl)-3-(morpholin-4-ylcarbonyl)-1,4-dihydrothiochromeno[4,3-c]pyrazole 5,5-dioxide] was run?
**A.** Its IC50 is 1290 nM.

**Q.** With O=C(c1nn(CCCO)c2c1CS(=O)(=O)c1ccccc1-2)N1CCOCC1 [Example 54, 3-[3-(morpholin-4-ylcarbonyl)-5,5-dioxidothiochromeno[4,3-c]pyrazol-1(4H)-yl]propan-1-ol] as the compound, how does the IC50 read?
**A.** Its IC50 is 2250 nM.

**Q.** O=C(c1nn(CCc2ccccn2)c2c1CS(=O)(=O)c1ccccc1-2)N1CCOCC1 [Example 55, 3-(morpholin-4-ylcarbonyl)-1-(2-pyridin-2-ylethyl)-1,4-dihydrothiochromeno[4,3-c]pyrazole 5,5-dioxide] was tested. Which IC50 did it give?
**A.** Its IC50 is 1920 nM.

**Q.** With O=C(c1nn(-c2ccccc2)c2c1C(Cc1ccccc1)S(=O)(=O)c1ccccc1-2)N1CCOCC1 (centres unmarked) [Example 57, 4-benzyl-3-(morpholin-4-ylcarbonyl)-1-phenyl-1,4-dihydrothiochromeno[4,3-c]pyrazole 5,5-dioxide] as the compound, how does the IC50 read?
**A.** Its IC50 is 2480 nM.

**Q.** For O=C(c1nn(-c2ccccc2)c2c1C(CC1CC1)S(=O)(=O)c1ccccc1-2)N1CCOCC1 (centres unmarked) [Example 58, 4-(cyclopropylmethyl)-3-(morpholin-4-ylcarbonyl)-1-phenyl-1,4-dihydrothiochromeno[4,3-c]pyrazole 5,5-dioxide], which IC50 is on record?
**A.** Its IC50 is 3900 nM.

**Q.** For CCC1c2c(C(=O)N3CCOCC3)nn(-c3ccccc3)c2-c2ccccc2S1(=O)=O (centres unmarked) [Example 59, 4-ethyl-3-(morpholin-4-ylcarbonyl)-1-phenyl-1,4-dihydrothiochromeno[4,3-c]pyrazole 5,5-dioxide], which IC50 is on record?
**A.** Its IC50 is 2470 nM.

**Q.** CC1(C)c2c(C(=O)N3CCOCC3)nn(-c3ccccc3)c2-c2ccccc2S1(=O)=O [Example 60, 4,4-dimethyl-3-(morpholin-4-ylcarbonyl)-1-phenyl-1,4-dihydrothiochromeno[4,3-c]pyrazole 5,5-dioxide] was tested. Which “Best potency measured on the 4 PI3K isoforms, % inh @20 μM” value did it give?
**A.** Its value is 52% in @20 μM.

**Q.** For O=C(c1cccc(-n2nc(C(=O)N3CCOCC3)c3c2-c2ccccc2S(=O)(=O)C3)c1)N1CCOCC1 [Example 61, 3-(Morpholin-4-ylcarbonyl)-1-[3-(morpholin-4-ylcarbonyl)phenyl]-1,4-dihydrothiochromeno[4,3-c]pyrazole 5,5-dioxide], which IC50 is on record?
**A.** Its IC50 is 73 nM.

**Q.** NC(=O)c1cccc(-n2nc(C(=O)N3CCOCC3)c3c2-c2ccccc2S(=O)(=O)C3)c1 [Example 62, 3-[3-(Morpholin-4-ylcarbonyl)-5,5-dioxidothiochromeno[4,3-c]pyrazol-1(4H)-yl]benzamide] was tested. Which IC50 did it give?
**A.** The IC50 was 957 nM.

**Q.** For Cn1nc(C(=O)N2CCOCC2)c2c1-c1cc(Br)ccc1S(=O)(=O)C2 [Example 63], which IC50 is on record?
**A.** The IC50 was 1040 nM.

**Q.** With O=C(c1nn(-c2ccccc2)c2c1CS(=O)(=O)c1ccc(Br)cc1-2)N1CCOCC1 [Example 64] as the compound, how does the IC50 read?
**A.** Its IC50 is 1300 nM.

**Q.** COc1cc(OC)cc(-n2nc(C(=O)N3CCOCC3)c3c2-c2ccccc2S(=O)(=O)C3)c1 [Example 67] was tested. Which “Best potency measured on the 4 PI3K isoforms, % inh @20 μM” value did it give?
**A.** The value was 54% inh @20 μM.

**Q.** N#Cc1cccc(-n2nc(C(=O)N3CCOCC3)c3c2-c2ccccc2S(=O)(=O)C3)c1 [Example 68] was tested. Which IC50 did it give?
**A.** The IC50 was 376 nM.

**Q.** CN(C)CCCn1nc(C(=O)N2CCOCC2)c2c1-c1ccccc1S(=O)(=O)C2 [Example 69, N,N-Dimethyl-3-[3-(morpholin-4-ylcarbonyl)-5,5-dioxidothiochromeno[4,3-c]pyrazol-1(4H)-yl]propan-1-amine] was tested. Which IC50 did it give?
**A.** Its IC50 is 3110 nM.

**Q.** Which IC50 does the source give for CN1CCCC(Cn2nc(C(=O)N3CCOCC3)c3c2-c2ccccc2S(=O)(=O)C3)C1 (centres unmarked) [Example 70, 1-[(1-Methylpiperidin-3-yl)methyl]-3-(morpholin-4-ylcarbonyl)-1,4-dihydrothiochromeno[4,3-c]pyrazole 5,5-dioxide] here?
**A.** The IC50 was 6050 nM.

**Q.** For CN1CCCC1CCn1nc(C(=O)N2CCOCC2)c2c1-c1ccccc1S(=O)(=O)C2 (centres unmarked) [Example 71, 1-[2-(1-Methylpyrrolidin-2-yl)ethyl]-3-(morpholin-4-ylcarbonyl)-1,4-dihydrothiochromeno[4,3-c]pyrazole 5,5-dioxide], which IC50 is on record?
**A.** The IC50 was 1230 nM.

**Q.** How did the IC50 turn out when O=C(c1nn(CCN2CCOCC2)c2c1CS(=O)(=O)c1ccccc1-2)N1CCOCC1 [Example 72, 3-(Morpholin-4-ylcarbonyl)-1-(2-morpholin-4-ylethyl)-1,4-dihydrothiochromeno[4,3-c]pyrazole 5,5-dioxide] was run?
**A.** Its IC50 is 795 nM.

**Q.** How did the IC50 turn out when O=C(c1nn(C2CCNCC2)c2c1CS(=O)(=O)c1ccccc1-2)N1CCOCC1 [Example 74] was run?
**A.** The IC50 was 1520 nM.

**Q.** With O=C(c1nn(C2CCCNC2)c2c1CS(=O)(=O)c1ccccc1-2)N1CCOCC1 (centres unmarked) [Example 75] as the compound, how does the IC50 read?
**A.** The IC50 was 3010 nM.

**Q.** With CN1CCCC(n2nc(C(=O)N3CCOCC3)c3c2-c2ccccc2S(=O)(=O)C3)C1 (centres unmarked) [Example 77, 1-(1-Methylpiperidin-3-yl)-3-(morpholin-4-ylcarbonyl)-1,4-dihydrothiochromeno[4,3-c]pyrazole 5,5-dioxide] as the compound, how does the IC50 read?
**A.** Its IC50 is 772 nM.

**Q.** With O=C(c1nn(C2CCCCCC2)c2c1CS(=O)(=O)c1ccccc1-2)N1CCOCC1 [Example 78, 1-Cycloheptyl-3-(morpholin-4-ylcarbonyl)-1,4-dihydrothiochromeno[4,3-c]pyrazole 5,5-dioxide] as the compound, how does the IC50 read?
**A.** The IC50 was 469 nM.

**Q.** O=C(c1nn(C2CCCNCC2)c2c1CS(=O)(=O)c1ccccc1-2)N1CCOCC1 (centres unmarked) [Example 82] was tested. Which IC50 did it give?
**A.** The IC50 was 1900 nM.

**Q.** For O=C(c1nn(C2CCNC2)c2c1CS(=O)(=O)c1ccccc1-2)N1CCOCC1 (centres unmarked) [Example 84], which IC50 is on record?
**A.** The IC50 was 4640 nM.

**Q.** For O=C(c1nn(-c2cccnc2)c2c1CS(=O)(=O)c1ccccc1-2)N1CCOCC1 [Example 88, 3-(Morpholin-4-ylcarbonyl)-1-pyridin-3-yl-1,4-dihydrothiochromeno[4,3-c]pyrazole 5,5-dioxide], which IC50 is on record?
**A.** The IC50 was 1130 nM.

**Q.** With COCCNc1ccc2c(c1)-c1c(c(C(=O)N3CCOCC3)nn1C1CCCCC1)CS2(=O)=O [Example 89] as the compound, how does the IC50 read?
**A.** Its IC50 is 1390 nM.

**Q.** With CC(C)(C)C1CCC(n2nc(C(=O)N3CCOCC3)c3c2-c2ccccc2S(=O)(=O)C3)CC1 (centres unmarked) [Example 94, 1-(4-tert-Butylcyclohexyl)-3-(morpholin-4-ylcarbonyl)-1,4-dihydrothiochromeno[4,3-c]pyrazole 5,5-dioxide] as the compound, how does the IC50 read?
**A.** Its IC50 is 4120 nM.

**Q.** Which IC50 does the source give for O=C(c1nn(C2CCC(O)CC2)c2c1CS(=O)(=O)c1ccccc1-2)N1CCOCC1 (centres unmarked) [Example 98, 4-[3-(Morpholin-4-ylcarbonyl)-5,5-dioxidothiochromeno[4,3-c]pyrazol-1(4H)-yl]cyclohexanol] here?
**A.** The IC50 was 512 nM.

**Q.** For O=C(c1nn(C2CCCOC2)c2c1CS(=O)(=O)c1ccccc1-2)N1CCOCC1 (centres unmarked) [Example 99], which IC50 is on record?
**A.** The IC50 was 326 nM.

**Q.** CC(=O)Nc1ccc2c(c1)-c1c(c(C(=O)N3CCOCC3)nn1-c1ccccc1)CS2(=O)=O [Example 100, N-[3-(Morpholin-4-ylcarbonyl)-5,5-dioxido-1-phenyl-1,4-dihydrothiochromeno[4,3-c]pyrazol-8-yl]acetamide] was tested. Which IC50 did it give?
**A.** Its IC50 is 876 nM.

**Q.** Which IC50 does the source give for COCCN1CCC(n2nc(C(=O)N3CCOCC3)c3c2-c2ccccc2S(=O)(=O)C3)CC1 [Example 101, 1-[1-(2-Methoxyethyl)piperidin-4-yl]-3-(morpholin-4-ylcarbonyl)-1,4-dihydrothiochromeno[4,3-c]pyrazole 5,5-dioxide] here?
**A.** Its IC50 is 1920 nM.

**Q.** For Cn1nc(C(=O)N2CCOCC2)c2c1-c1ccccc1S(=O)(=O)C2Cc1ccccc1 (centres unmarked) [Example 111, 4-Benzyl-1-methyl-3-(morpholin-4-ylcarbonyl)-1,4-dihydrothiochromeno[4,3-c]pyrazole 5,5-dioxide], which IC50 is on record?
**A.** Its IC50 is 5270 nM.

**Q.** For COCCCC1c2c(C(=O)N3CCOCC3)nn(-c3ccccc3)c2-c2ccccc2S1(=O)=O (centres unmarked) [Example 112, 4-(3-Methoxypropyl)-3-(morpholin-4-ylcarbonyl)-1-phenyl-1,4-dihydrothiochromeno[4,3-c]pyrazole 5,5-dioxide], which IC50 is on record?
**A.** Its IC50 is 5070 nM.

**Q.** How did the IC50 turn out when COc1ccc2c(c1)-c1c(c(C(=O)N3CCOCC3)nn1-c1ccccc1)CS2(=O)=O [Example 113, 8-Methoxy-3-(morpholin-4-ylcarbonyl)-1-phenyl-1,4-dihydrothiochromeno[4,3-c]pyrazole 5,5-dioxide] was run?
**A.** The IC50 was 3350 nM.

**Q.** Which IC50 does the source give for CN1CCN(C(=O)c2ccc3c(c2)-c2c(c(C(=O)N4CCOCC4)nn2-c2ccccc2)CS3(=O)=O)CC1 [Example 114, 8-[(4-Methylpiperazin-1-yl)carbonyl]-3-(morpholin-4-ylcarbonyl)-1-phenyl-1,4-dihydrothiochromeno[4,3-c]pyrazole 5,5-dioxide] here?
**A.** Its IC50 is 4280 nM.

**Q.** Which IC50 does the source give for CN(C)C(=O)c1ccc2c(c1)-c1c(c(C(=O)N3CCOCC3)nn1-c1ccccc1)CS2(=O)=O [Example 115, N,N-Dimethyl-3-(morpholin-4-ylcarbonyl)-1-phenyl-1,4-dihydrothiochromeno[4,3-c]pyrazole-8-carboxamide 5,5-dioxide] here?
**A.** Its IC50 is 3730 nM.

**Q.** O=C(c1ccc2c(c1)-c1c(c(C(=O)N3CCOCC3)nn1-c1ccccc1)CS2(=O)=O)N1CCOCC1 [Example 116, 3,8-Bis(morpholin-4-ylcarbonyl)-1-phenyl-1,4-dihydrothiochromeno[4,3-c]pyrazole 5,5-dioxide] was tested. Which IC50 did it give?
**A.** The IC50 was 3030 nM.
